Data published in patent US10294202B2, “Pyrrolidinones as herbicides” (FMC Corporation, priority 2013, dated 2019).
Where two headings read alike, the source gives them in different places.

Columns and labels:
soybean = experiment: Test C pre-/postemergence herbicide test; assay type: in vivo, Glycine max
Excerpt: (§1) Seeds of plant species selected from blackgrass (Alopecurus myosuroides), ryegrass, Italian (Italian ryegrass, Lolium multiflorum), wheat (winter wheat, Triticum aestivum), galium (catchweed bedstraw, Galium aparine), corn (Zea mays), crabgrass, large (large crabgrass, Digitaria sanguinalis), foxtail, giant (giant foxtail, Setaria faberii), johnsongrass (Sorghum halepense), lambsquarters (Chenopodium album), morningglory (Ipomoea coccinea), nutsedge, yellow (yellow nutsedge, Cyperus esculentus), pigweed (Amaranthus retroflexus), ragweed (common ragweed, Ambrosia elatior), soybean (Glycine max), barnyardgrass (Echinochloa crus-galli), oilseed rape (Brassica napus), waterhemp (common waterhemp, Amaranthus rudis), kochia (Kochia scoparia), oat, wild (wild oat, Avena fatua), surinam grass (Brachiaria decumbens), foxtail, green (green foxtail, Setaria viridis), goosegrass (Eleusine indica), bromegrass, downy (downy bromegrass, Bromus tectorum), nightshade (eastern black nightshade, Solanum ptycanthum), cocklebur (common cocklebur, Xanthium strumarium), cupgrass, woolly (woolly cupgrass, Eriochloa villosa), bermudagrass (Cynodon dactylon), sunflower, (common oilseed sunflower, Helianthus annuus), Russian thistle (Salsola kali) and velvetleaf (Abutilon theophrasti) were planted into a blend of loam soil and sand and treated preemergence with test chemicals formulated in a non-phytotoxic solvent mixture which included a surfactant. At the same time, plants selected from these crop and weed species and also barley (winter barley, Hordeum vulgare), […]), chickweed (common chickweed, Stellaria media), deadnettle (henbit deadnettle, Lamium amplexicaule), and canarygrass (littleseed canarygrass, Phalaris minor) were planted in pots containing Redi-Earth® planting medium (Scotts Company, 14111 Scottslawn Road, Marysville, Ohio 43041) comprising spaghnum peat moss, vermiculite, wetting agent and starter nutrients and treated with postemergence applications of test chemicals formulated in the same manner. Plants ranged in height from 2 to 18 cm (1- to 4-leaf stage) for postemergence treatments. Treated plants and controls were maintained in a greenhouse for 13 to 15 days, after which time all species were compared to controls and visually evaluated. Plant response ratings, summarized in Table C, are based on a scale of 0 to 100 where 0 is no effect and 100 is complete control. A dash (-) response means no test result.

oilseed rape = experiment: Test C pre-/postemergence herbicide test; assay type: in vivo, Brassica napus
Excerpt: as §1

foxtail, giant = experiment: Test C pre-/postemergence herbicide test; assay type: in vivo, Setaria faberii
Excerpt: as §1

waterhemp = experiment: Test C pre-/postemergence herbicide test; assay type: in vivo, Amaranthus rudis
Excerpt: as §1

galium = experiment: Test A postemergence herbicide test; assay type: in vivo, Galium aparine; conditions: for Plant response rating, Galium: 125 g ai/ha, 0 to 100 scale, 0 is no effect, 100 is complete control; for Galium plant response rating (0 to 100 scale, 0 is no effect, 100 is complete control): 500 g ai/ha
Summary of the method: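 Visual injury rating, 0 (no effect) to 100 (complete control), versus untreated controls ~10 days after treatment. Postemergence spray applied at one- to two-leaf stage, plants 2–10 cm tall, potted in loam soil/sand. Greenhouse-held.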

barnyardgrass = experiment: Test A pre-/postemergence herbicide test; assay type: in vivo, Echinochloa crus-galli
Summary of the method: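 Visual 0–100 ratings (100 = complete control) made about 10 days after treatment, greenhouse-held plants compared with untreated controls. Treatments: postemergence sprays on one- to two-leaf plants (2–10 cm tall) and preemergence directed soil sprays after planting in loam–sand, chemicals formulated in non-phytotoxic solvent containing surfactant.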

[1] = Postemergence, 31 g ai/ha, scale 0 to 100 (0 no effect, 100 complete control)
[2] = Postemergence, 62 g ai/ha, scale 0 (no effect) to 100 (complete control)
[3] = Postemergence, 125 g ai/ha, scale 0 to 100 (0 no effect, 100 complete control)
[4] = Postemergence, 250 g ai/ha, scale 0 to 100 (0 no effect, 100 complete control)
[5] = Preemergence, 31 g ai/ha, scale 0 to 100, 0 is no effect and 100 is complete control
[6] = Preemergence, 125 g ai/ha, scale 0 to 100 (0 no effect, 100 complete control)
[7] = Preemergence, 62 g ai/ha, scale 0 to 100 (0 no effect, 100 complete control)

O=C1NC[C@H](c2cccc(C(F)(F)F)c2)[C@H]1C(=O)Nc1ccccc1F [Compound 204, (3R,4S)—N-(2-fluorophenyl)-2-oxo-4-[3-(trifluoromethyl)phenyl]-3-pyrrolidinecarboxamide]
Plant response rating, Soybean (soybean; [1]): 0
Plant response rating, Soybean (soybean; [2]): 0
Plant response rating, Soybean (soybean; [3]): 0
Plant response rating, Soybean (soybean; [4]): 5
Soybean plant response rating (soybean; [5]): 5
Plant response rating, Soybean (soybean; [6]): 5
Plant response rating (scale of 0 to 100), Soybean (soybean; Preemergence, 250 g ai/ha): 10
Plant response rating, Oilseed Rape (oilseed rape; [1]): 0
Plant response rating, Oilseed Rape (oilseed rape; [2]): 0
Plant response rating, Oilseed Rape (oilseed rape; [3]): 0
Plant response rating, Oilseed Rape (oilseed rape; [4]): 45
Oilseed Rape plant response rating (oilseed rape; [5]): 0
Oilseed Rape plant response rating (oilseed rape; [7]): 0
Plant response rating, Oilseed Rape (oilseed rape; [6]): 0
Plant response rating (scale of 0 to 100), Oilseed Rape (oilseed rape; Preemergence, 250 g ai/ha): 60
Plant response rating, Foxtail, Giant (foxtail, giant; [1]): 0
Plant response rating, Foxtail, Giant (foxtail, giant; [2]): 10
Plant response rating, Foxtail, Giant (foxtail, giant; [3]): 90
Plant response rating, Foxtail, Giant (foxtail, giant; [4]): 90
Foxtail, Giant plant response rating (foxtail, giant; [5]): 90
Foxtail, Giant plant response rating (foxtail, giant; [7]): 90
Plant response rating, Foxtail, Giant (foxtail, giant; [6]): 95
Plant response rating (scale of 0 to 100), Foxtail, Giant (foxtail, giant; Preemergence, 250 g ai/ha): 95
Plant response rating, Waterhemp (waterhemp; [1]): 0
Plant response rating, Waterhemp (waterhemp; [2]): 0
Plant response rating, Waterhemp (waterhemp; [3]): 0
Plant response rating, Waterhemp (waterhemp; [4]): 5
Waterhemp plant response rating (waterhemp; [5]): 100
Waterhemp plant response rating (waterhemp; [7]): 75
Plant response rating, Waterhemp (waterhemp; [6]): 80
Plant response rating (scale of 0 to 100), Waterhemp (waterhemp; Preemergence, 250 g ai/ha): 90
Plant response rating, Galium (galium): 50
Galium plant response rating (0 to 100 scale, 0 is no effect, 100 is complete control) (galium): 60
pest or weed control at 125 g/ha (barnyardgrass; Echinochloa crus-galli, post-emergence, 240 h, Postemergence, 125 g ai/ha, 0 to 100 scale, 0 is no effect, 100 is complete control, read-out: Plant response rating, Barnyardgrass): 90%
pest or weed control at 125 g/ha (barnyardgrass; Echinochloa crus-galli, pre-emergence, 240 h, 125 g ai/ha, visual rating, 0 to 100 scale, 0 no effect, 100 complete control, approximately 10 days, read-out: Plant response rating, Barnyardgrass): 90%
pest or weed control at 500 g/ha (barnyardgrass; Echinochloa crus-galli, pre-emergence, 240 h, preemergence, 500 g ai/ha, 0 to 100 scale, 0 is no effect and 100 is complete control, read-out: Plant response rating, Barnyardgrass): 90%
Barnyardgrass plant response rating (0 to 100 scale, 0 is no effect, 100 is complete control) (barnyardgrass; Postemergence, 500 g ai/ha): 90

O=C1NC[C@H](c2cccc(C(F)(F)F)c2)[C@H]1C(=O)Nc1cccc(F)c1F [Compound 206]
Plant response rating, Soybean (soybean; [1]): 5
Plant response rating, Soybean (soybean; [2]): 5
Plant response rating, Soybean (soybean; [3]): 5
Plant response rating, Soybean (soybean; [4]): 5
Soybean plant response rating (soybean; [5]): 0
Soybean plant response rating (soybean; [7]): 0
Plant response rating, Soybean (soybean; [6]): 0
Plant response rating (scale of 0 to 100), Soybean (soybean; Preemergence, 250 g ai/ha): 0
Plant response rating, Oilseed Rape (oilseed rape; [1]): 0
Plant response rating, Oilseed Rape (oilseed rape; [2]): 30
Plant response rating, Oilseed Rape (oilseed rape; [3]): 50
Plant response rating, Oilseed Rape (oilseed rape; [4]): 55
Oilseed Rape plant response rating (oilseed rape; [5]): 5
Oilseed Rape plant response rating (oilseed rape; [7]): 70
Plant response rating, Oilseed Rape (oilseed rape; [6]): 75
Plant response rating (scale of 0 to 100), Oilseed Rape (oilseed rape; Preemergence, 250 g ai/ha): 90
Plant response rating, Foxtail, Giant (foxtail, giant; [1]): 0
Plant response rating, Foxtail, Giant (foxtail, giant; [2]): 50
Plant response rating, Foxtail, Giant (foxtail, giant; [3]): 50
Plant response rating, Foxtail, Giant (foxtail, giant; [4]): 85
Foxtail, Giant plant response rating (foxtail, giant; [5]): 90
Foxtail, Giant plant response rating (foxtail, giant; [7]): 90
Plant response rating, Foxtail, Giant (foxtail, giant; [6]): 95
Plant response rating (scale of 0 to 100), Foxtail, Giant (foxtail, giant; Preemergence, 250 g ai/ha): 95
Plant response rating, Waterhemp (waterhemp; [1]): 0
Plant response rating, Waterhemp (waterhemp; [2]): 0
Plant response rating, Waterhemp (waterhemp; [3]): 35
Plant response rating, Waterhemp (waterhemp; [4]): 30
Waterhemp plant response rating (waterhemp; [5]): 70
Waterhemp plant response rating (waterhemp; [7]): 100
Plant response rating, Waterhemp (waterhemp; [6]): 100
Plant response rating (scale of 0 to 100), Waterhemp (waterhemp; Preemergence, 250 g ai/ha): 100
Plant response rating, Galium (galium): 70
Galium plant response rating (0 to 100 scale, 0 is no effect, 100 is complete control) (galium): 80
Plant response rating, Barnyardgrass (barnyardgrass; 125 g ai/ha, visual rating, 0 to 100 scale, 0 no effect, 100 complete control, approximately 10 days, preemergence): 90
Plant response rating, Barnyardgrass (barnyardgrass; Postemergence, 125 g ai/ha, 0 to 100 scale, 0 is no effect, 100 is complete control): 90
Barnyardgrass plant response rating (0 to 100 scale, 0 is no effect, 100 is complete control) (barnyardgrass; Postemergence, 500 g ai/ha): 90
Plant response rating, Barnyardgrass (barnyardgrass; preemergence, 500 g ai/ha, 0 to 100 scale, 0 is no effect and 100 is complete control): 90
